According to ChEMBL document CHEMBL4483862, “Open-source discovery of chemical leads for next-generation chemoprotective antimalarials” (2018):

Tested on: Plasmodium berghei
Experiment: Luciferase/luciferin-expressing antifolate-resistant parasites were used to infect a culture of HepG2 cells that were pre-incubated with compounds. Infected hepatocytes emit light due to the luciferase reaction. Assay results are presented as the percent inhibition of light emission compared to control. […]
Type: functional
Details: sporozoite; for IC90: read-out: LUCIFERASE INFECTION ASSAY - IC90
[1] = read-out: LUCIFERASE INFECTION ASSAY - IC50

SMILES | IC90 [µM] | IC50 [1] [µM] | other results
OC[C@H]1O[C@@H](c2nc(-c3nc(-c4ccc5[nH]ccc5c4)no3)cs2)[C@H](O)[C@@H]1O | 1.55 | – | IC50 (PBLUC_HILL_SLOPE 1.16, PBLUC_R_SQUARED 0.583, read-out: LUCIFERASE INFECTION ASSAY - IC50): 0.232 µM
CCOc1ccc(Oc2ccc(S(=O)(=O)Oc3ccccc3C(N)=O)cc2)cc1 | 3.39 | – | IC50 (PBLUC_HILL_SLOPE 12.7, PBLUC_R_SQUARED 0.259, read-out: LUCIFERASE INFECTION ASSAY - IC50): 2.85 µM
O=C1/C(=C/c2ccccc2Cl)CCC/C1=C\c1ccccc1Cl | > 9.61 | > 9.61 | –
COc1ccc(-c2cnc3ccc(NCc4cccc(Cl)c4)nn23)cc1 | 8.06 | – | IC50 (HEPG2TOX_HILL_SLOPE 4.15, HEPG2TOX_R_SQUARED 0.863, PBLUC_HILL_SLOPE 14.2, PBLUC_R_SQUARED 0.0441, read-out: LUCIFERASE INFECTION ASSAY - IC50): 6.9 µM
CN(CC(=O)Nc1ccc(Cl)c(Cl)c1)C(=O)C12CC3CC(CC(C3)C1)C2 | > 10 | > 10 | –
Clc1ccc(SCc2cc(NCc3ccccc3)nc(-c3cccnc3)n2)cc1 | 7.84 | 6.53 | –
COC(=O)c1cccnc1Nc1ccc(NS(=O)(=O)c2ccc(F)c(F)c2)cc1 | > 10 | > 10 | –
c1ccc(-c2cn3nc(NCc4cccs4)sc3n2)cc1 | > 10 | – | IC50 (PBLUC_HILL_SLOPE 2.88, PBLUC_R_SQUARED 0.313, read-out: LUCIFERASE INFECTION ASSAY - IC50): 4.87 µM
CCOC(=O)c1c(C)[nH]c(C(=O)Nc2ccnn2Cc2ccc(Cl)cc2Cl)c1C | > 10 | – | IC50 (PBLUC_HILL_SLOPE 1.6, PBLUC_R_SQUARED 0.586, read-out: LUCIFERASE INFECTION ASSAY - IC50): 3.97 µM
c1ccc(Cn2c(-c3cccnc3)cc3cnc(Nc4ccc(N5CCOCC5)cc4)cc32)cc1 | 8.6 | – | IC50 (HEPG2TOX_HILL_SLOPE 16.1, HEPG2TOX_R_SQUARED 0.869, PBLUC_HILL_SLOPE 3.82, PBLUC_R_SQUARED 0.619, read-out: LUCIFERASE INFECTION ASSAY - IC50): 4.83 µM
Cc1nc(=O)c(CCC(=O)Nc2ncc(Cc3cccc(C)c3Cl)s2)c(C)[nH]1 | > 10 | 8.8 | –
COCCN1C(=O)N(Cc2cccc(OC)c2)C(=O)C12CCN(C1CCc3ccccc3C1)CC2 (configuration not stated) | > 6.91 | – | IC50 (PBLUC_HILL_SLOPE 3.06, PBLUC_R_SQUARED 0.614, read-out: LUCIFERASE INFECTION ASSAY - IC50): 4.45 µM
O=C(Nc1ccc(Oc2cc(C(F)(F)F)cc(C(F)(F)F)c2)cc1)c1cccs1 | 0.356 | – | IC50 (PBLUC_HILL_SLOPE 1.36, PBLUC_R_SQUARED 0.733, read-out: LUCIFERASE INFECTION ASSAY - IC50): 0.0707 µM
CC1C(c2ccccc2)N(C)C(c2ccccc2)CC1(O)c1ccc(F)cc1 (configuration not stated) | > 8.01 | – | IC50 (PBLUC_HILL_SLOPE 3.61, PBLUC_R_SQUARED 0.228, read-out: LUCIFERASE INFECTION ASSAY - IC50): 7.47 µM
O=C(CN1CCN(CCOc2ccccc2)CC1)Nc1cc(C(F)(F)F)ccc1Cl | > 10 | – | IC50 (PBLUC_HILL_SLOPE 3.77, PBLUC_R_SQUARED 0.518, read-out: LUCIFERASE INFECTION ASSAY - IC50): 7.08 µM
COc1ccc(C)cc1NC(=O)C(OC(=O)c1cccn1C)c1ccccc1 (configuration not stated) | > 10 | – | IC50 (PBLUC_HILL_SLOPE 2.21, PBLUC_R_SQUARED 0.0841, read-out: LUCIFERASE INFECTION ASSAY - IC50): 8.87 µM
Cc1occc1C(=O)NN=CC1C(=O)N(Cc2ccccc2)C(=O)c2ccccc21 (configuration not stated) | 7.7 | – | IC50 (FFLUC_HILL_SLOPE 77.8, FFLUC_R_SQUARED 0.432, HEPG2TOX_HILL_SLOPE 1.95, HEPG2TOX_R_SQUARED 0.861, PBLUC_HILL_SLOPE 6.12, PBLUC_R_SQUARED 0.278, read-out: LUCIFERASE INFECTION ASSAY - IC50): 5.38 µM
O=C(Nc1nonc1-c1cccs1)c1ccc(Br)cc1 | 6.36 | – | IC50 (HEPG2TOX_HILL_SLOPE 7.96, HEPG2TOX_R_SQUARED 0.814, PBLUC_HILL_SLOPE 7.42, PBLUC_R_SQUARED 0.0569, read-out: LUCIFERASE INFECTION ASSAY - IC50): 4.73 µM
CS(=O)(=O)Nc1ccc(C(=N)NOC(=O)Nc2ccc(C(F)(F)F)cc2)cc1 | > 7.93 | > 7.93 | –
COc1ccc(C(=O)Nc2nc3ccc(C)cn3c2C(=O)NC2CCCCC2)cc1 | 3.1 | – | IC50 (FFLUC_HILL_SLOPE 17.6, FFLUC_R_SQUARED 0.155, HEPG2TOX_HILL_SLOPE 2.69, HEPG2TOX_R_SQUARED 0.972, PBLUC_HILL_SLOPE 14.3, PBLUC_R_SQUARED 0.423, read-out: LUCIFERASE INFECTION ASSAY - IC50): 2.66 µM
COc1ccnc(Nc2ccc3c(c2)nc2n3CCCCC2)n1 | 2.84 | – | IC50 (FFLUC_HILL_SLOPE 0.925, FFLUC_R_SQUARED 0.902, HEPG2TOX_HILL_SLOPE 18.6, HEPG2TOX_R_SQUARED 0.895, PBLUC_HILL_SLOPE 0.753, PBLUC_R_SQUARED 0.781, read-out: LUCIFERASE INFECTION ASSAY - IC50): 0.154 µM
CN(C)c1ccc(C(c2ccc(OC(F)F)cc2)c2ccc(N(C)C)cc2)cc1 | 6.27 | – | IC50 (HEPG2TOX_HILL_SLOPE 3.6, HEPG2TOX_R_SQUARED 0.971, PBLUC_HILL_SLOPE 3.21, PBLUC_R_SQUARED 0.781, read-out: LUCIFERASE INFECTION ASSAY - IC50): 3.16 µM
O=[N+]([O-])c1ccc(Oc2c(Cl)cc(S(=O)(=O)Nc3cccc(C(F)(F)F)c3)cc2Cl)c(Cl)c1 | > 6.09 | – | IC50 (FFLUC_HILL_SLOPE 1.65, FFLUC_R_SQUARED 0.655, read-out: LUCIFERASE INFECTION ASSAY - IC50): > 6.09 µM

SMILES | IC90 [µM] | IC50 [1] [µM] | other results
O=C(CN1CSCC1=O)Nc1nc2ccccc2[nH]1 | > 10 | > 10 | –
COc1cccc(N(C)C(=O)c2nn(Cc3ccccc3)c(=O)c3ccccc23)n1 | > 10 | > 10 | –
O=C(Nc1ccc(F)cc1F)c1nnsc1S(=O)(=O)c1ccc(Cl)cc1 | > 7.94 | > 7.94 | –
Cc1ccc(Sc2ncnc3sccc23)cc1 | > 12.8 | > 12.8 | –
CCCCCc1c(C)nc(-c2ccccn2)nc1O | > 12.8 | > 12.8 | –
O=C1NC(c2ccccc2)=C(C(=O)C(F)(F)F)C(c2ccc(OC(F)F)cc2)N1 (configuration not stated) | > 10 | > 10 | –
Cc1nc(/C=C/C(=O)Nc2nc3ccccc3[nH]2)cs1 | 1.37 | – | IC50 (HEPG2TOX_HILL_SLOPE 0.99, HEPG2TOX_R_SQUARED 0.611, PBLUC_HILL_SLOPE 0.644, PBLUC_R_SQUARED 0.42, read-out: LUCIFERASE INFECTION ASSAY - IC50): 0.0451 µM
O=C(c1cnc2nc(N3CCCCC3)sc2c1)c1ccccc1O | > 10 | 6.09 | –
CCCCNC(=O)c1c(NC(=O)COc2ccccc2)nc2ccc(C)cn12 | 8.47 | – | IC50 (FFLUC_HILL_SLOPE 32.7, FFLUC_R_SQUARED 0.34, HEPG2TOX_HILL_SLOPE 7.48, HEPG2TOX_R_SQUARED 0.362, PBLUC_HILL_SLOPE 14.2, PBLUC_R_SQUARED 0.182, read-out: LUCIFERASE INFECTION ASSAY - IC50): 7.25 µM
C1CCN(Cc2nc(NC3CCN(C4CC4)CC3)c3c4c(sc3n2)CCCC4)CC1 | > 10 | > 10 | –
COc1ccc(CNC(=O)c2ccc(C3(CNc4cccc(OC)c4)CC3)cc2)cc1 | > 10 | > 10 | –
O=C(Nc1ccc(OC(F)(F)F)cc1)Nc1ccc2nc(-c3ccoc3)nn2c1 | > 10 | 10 | –
Cc1cc(O)cc2c1C(=O)/C(=C/c1ccc(Cl)cc1)O2 | 8.29 | – | IC50 (HEPG2TOX_HILL_SLOPE 11.8, HEPG2TOX_R_SQUARED 0.8, PBLUC_HILL_SLOPE 6.24, PBLUC_R_SQUARED 0.404, read-out: LUCIFERASE INFECTION ASSAY - IC50): 5.83 µM
CCN1CCN(c2ccc(Cl)cc2NC(=O)c2sc(-c3ccccc3)nc2C)CC1 | 4.23 | – | IC50 (PBLUC_HILL_SLOPE 12.2, PBLUC_R_SQUARED 0.286, read-out: LUCIFERASE INFECTION ASSAY - IC50): 3.53 µM
Cc1[nH]c(-c2ccccn2)nc(=O)c1CC(=O)NC1CCCCCCC1 | 1.71 | – | IC50 (PBLUC_HILL_SLOPE 61.7, PBLUC_R_SQUARED 0.378, read-out: LUCIFERASE INFECTION ASSAY - IC50): 1.65 µM
Cc1ccc2[nH]c(=S)n(-c3cc(Cl)ccc3C)c(=O)c2c1 | > 10.4 | – | IC50 (PBLUC_HILL_SLOPE 1.97, PBLUC_R_SQUARED 0.142, read-out: LUCIFERASE INFECTION ASSAY - IC50): 9.2 µM
COCC(=O)N1CCCC(C)(C(=O)NCc2cnc(C)cn2)C1 (configuration not stated) | > 10.3 | > 10.3 | –
Cc1cc(Cl)c(C)c(S(=O)(=O)N(C)C(C)c2ccc(S(N)(=O)=O)cc2)c1Cl (configuration not stated) | > 10 | – | IC50 (HEPG2TOX_HILL_SLOPE 3.91, HEPG2TOX_R_SQUARED 0.817, PBLUC_HILL_SLOPE 1.91, PBLUC_R_SQUARED 0.506, read-out: LUCIFERASE INFECTION ASSAY - IC50): 6.84 µM
Cc1cc(C)nc(SCC(=O)N2CCN(C(=O)c3ccco3)CC2)n1 | 3.74 | – | IC50 (PBLUC_HILL_SLOPE 11.5, PBLUC_R_SQUARED 0.424, read-out: LUCIFERASE INFECTION ASSAY - IC50): 3.09 µM
COc1ccc(-c2ccc(CCC(=O)Nc3sccc3C#N)o2)cc1 | > 10 | 7.82 | –
CN(Cc1nc(-c2ccccc2)c2ccccc2n1)Cc1nc(=O)c2ccccc2[nH]1 | > 10 | > 10 | –
N#C/C(=C\Nc1ncccn1)S(=O)(=O)c1ccccc1Cl | > 10.3 | – | IC50 (FFLUC_HILL_SLOPE 11.3, FFLUC_R_SQUARED 0.831, read-out: LUCIFERASE INFECTION ASSAY - IC50): > 10.3 µM
N=C1NC(=O)C(C2(O)C(=O)N(Cc3ccccc3)c3ccc(Cl)cc32)S1 (configuration not stated) | > 8.51 | – | IC50 (PBLUC_HILL_SLOPE 0.13, PBLUC_R_SQUARED 0.0166, read-out: LUCIFERASE INFECTION ASSAY - IC50): > 8.51 µM
